Measurements as given in patent US20190225650A1, “PEPTIDOMIMETIC MACROCYCLES AND USE THEREOF IN REGULATING HIF1ALPHA” (AILERON THERAPEUTICS, INC., priority 2013, published 2019).
Bridge positions count the residues as written; N and C are the ends. Square brackets hold non-standard residues; d marks the D form. Peptide text beside a SMILES is read from it. S5 = C=CCCC[C@](C)(N)C(=O)O; Nle = CCCC[C@H](N)C(=O)O

Legend:
[1] = target: T1, flag-tagged HIF1α (AA 786-826) / His6-tagged p300 (AA 323-423) complex (Homo sapiens, UniProt Q09472); assay: HIF1α p300 displacement assay (TR FRET, +CHAPS); type: binding; conditions: read-out: IC50 (nM) (HIF1α_p300 Displacement + CHAPS)
T1 construct: His6-tagged p300 (AA 323-423); made in house; host or cells: E. coli (pETDuet vector)
Summary of the method: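 The co-expressed flag-HIF1α (786-826)/His6-p300 (323-423) complex, purified from E. coli with 0.1 mM ZnSO4, was used at 300 nM final with competitor peptides for 1 h at room temperature. Buffer was 150 mM NaCl, 20 mM HEPES pH 7.4, 7.5 mM CHAPS and 1 mM DTT. Anti-Flag-K (0.5 μM) and anti-His-D2 (4 nM) were then added for 2 h, and IC50s were fitted from the TR-FRET ratio.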

HRE-bla ME-180 cells [2] = assay: Reporter gene assay (HRE-bla ME-180 HIF reporter, GeneBLAzer); type: cell-based, human; conditions: for EC50: 24 hour normoxia
Summary of the method: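 A FRET β-lactamase readout of HIF transcription was used. After compound treatment in 0.3% DMSO/media under normoxic conditions, 20 μl of 6× LiveBLAzer-FRET B/G (CCF4-AM) substrate was added. Plates sat 3 hr at room temperature in the dark and were read at 409 Ex/460Em and 409Ex/530Em on a Synergy 2. Inhibition was compared against DMSO vehicle controls, with chetomin as positive control.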

HRE-bla ME-180 cells [3] = assay: Cell proliferation assay (viability, MTT, 1% FBS); type: cell-based, human
Procedure: The human cervical cell line HRE-Bla ME-180 was obtained from Invitrogen. 2×10^4 ME-180 cells were plated in 96-well plates (costar) in Opti-MEM plus 1% FBS (Invitrogen). After 4 hr, cells were pretreated with chetomin, peptide or 0.5% DMSO (final concentration in media) vehicle control for 16 hr under normoxia (21% O2); then incubation continued under normoxia or hypoxia (1% O2) using a hypoxia incubator (Thermo Forma model). Viable cell numbers were quantified using CellTiter 96 Non-Radioactive Cell Proliferation kit (Promega, G4100). The results are presented in the column “Viability 1% FBS AVG (MTT V3-24 hr Normoxia) (μM)” of Table 6.

For `CCCC[C@H](NC(=O)[C@H](CC(C)C)NC(=O)[C@@H](NC(=O)[C@H](CCC(=O)O)NC(=O)[C@H](CCC(=O)O)NC(=O)[C@H](CC(=O)O)NC(=O)[C@@H](NC(=O)[C@H](Cc1ccccc1)NC(C)=O)[C@@H](C)CC)C(C)C)C(=O)N[C@@]1(C)CCCC=CCCC[C@@](C)(C(=O)N[C@@H](CCCC)C(=O)N[C@@H](C)C(=O)N[C@@H](Cc2ccccc2)C(N)=O)NC(=O)[C@H]([C@@H](C)CC)NC(=O)[C@H](C(C)C)NC(=O)[C@H](CC(C)C)NC1=O` [SP-220] (Ac-FIDEEVL[Nle][S5]LVI[S5][Nle]AF-NH2; staple 9-13), the IC50 [1] was greater than 700 nM, the “18 h Avg % max inhibition at top conc (HIF Rptr-24 hrs normoxia) (μM)” value (“18 h Avg % max inhibition at top conc” for short) (HRE-bla ME-180 cells [2]) was “+ (<10: +)” and the EC50 (HRE-bla ME-180 cells [2]) was greater than 30 µM. For the same compound, the “Viability 1% FBS AVG (MTT V3-24 hr Normoxia) (μM)” value (shortened to “Viability 1% FBS AVG”) (HRE-bla ME-180 cells [3]) was “++++ (≥30: ++++)”.

In the case of `CC[C@H](C)[C@H](NC(=O)[C@H](Cc1ccccc1)NC(C)=O)C(=O)N[C@@H](CC(=O)O)C(=O)N[C@@H](CCC(=O)O)C(=O)N[C@@]1(C)CCCC=CCCC[C@@](C)(C(=O)N[C@@H](CC(C)C)C(=O)N[C@H](C(=O)N[C@H](C(=O)N[C@@H](CCC(=O)O)C(=O)N[C@@H](CCSC)C(=O)N[C@@H](C)C(=O)N[C@@H](CC(C)C)C(=O)N[C@@H](CC(=O)O)C(=O)N[C@@H](CCCNC(=N)N)C(=O)N[C@H](C(=O)N[C@@H](CCCCN)C(=O)N[C@@H](CCC(=O)O)C(=O)N[C@@H](CC(C)C)C(=O)N2CCC[C@H]2C(=O)N[C@@H](CCC(=O)O)C(=O)N[C@@H](CC(C)C)C(=O)N[C@@H](Cc2c[nH]c3ccccc23)C(=O)N[C@@H](CC(C)C)C(N)=O)[C@@H](C)CC)[C@@H](C)CC)C(C)C)NC(=O)[C@H](C)NC(=O)[C@H](CC(C)C)NC(=O)[C@H](C(C)C)NC1=O` [SP-112] (Ac-FIDE[S5]VLA[S5]LVIEMALDRIKELPELWL-NH2; staple 5-9), the IC50 [1] is reported as no more than 200 nM, the “18 h Avg % max inhibition at top conc” value (HRE-bla ME-180 cells [2]) is reported as “+++ (≤25 but <50: +++)” and the EC50 (HRE-bla ME-180 cells [2]) is reported as 5 to 15 µM. The “Viability 1% FBS AVG” value (HRE-bla ME-180 cells [3]) was “++++ (≥30: ++++)”.

With `CCCC[C@H](NC(=O)[C@H](CCC(=O)O)NC(=O)[C@@H](NC(=O)[C@@H](NC(=O)[C@H](CC(C)C)NC(=O)[C@]1(C)CCCC=CCCC[C@](C)(NC(=O)[C@H](CCC(=O)O)NC(=O)[C@H](CCCNC(=N)N)NC(=O)[C@@H](NC(=O)[C@H](Cc2ccccc2)NC(C)=O)[C@@H](C)CC)C(=O)N[C@@H](C(C)C)C(=O)N[C@@H](CC(C)C)C(=O)N[C@@H](CCCC)C(=O)N1)C(C)C)[C@@H](C)CC)C(=O)N[C@@H](C)C(=O)N[C@@H](CC(C)C)C(N)=O` [SP-155] (Ac-FIRE[S5]VL[Nle][S5]LVIE[Nle]AL-NH2; staple 5-9) the IC50 [1] was greater than 700 nM, the “18 h Avg % max inhibition at top conc” value (HRE-bla ME-180 cells [2]) was “++ (≤10 but <25: ++)” and the EC50 (HRE-bla ME-180 cells [2]) was greater than 30 µM. For the same compound, the “Viability 1% FBS AVG” value (HRE-bla ME-180 cells [3]) was “++++ (≥30: ++++)”.

`CC[C@H](C)[C@H](NC(=O)[C@H](CCCNC(=N)N)NC(=O)[C@H](CC(=O)O)NC(=O)[C@H](CC(C)C)NC(=O)[C@H](C)NC(=O)[C@H](CCSC)NC(=O)[C@]1(C)CCCC=CCCC[C@](C)(NC(=O)[C@H](CCSC)NC(=O)[C@H](CC(C)C)NC(=O)[C@@H](NC(=O)[C@H](C)NC(=O)[C@H](CCC(=O)O)NC(=O)[C@H](CC(=O)O)NC(=O)[C@@H](NC(=O)[C@H](Cc2ccccc2)NC(C)=O)[C@@H](C)CC)C(C)C)C(=O)N[C@@H](CC(C)C)C(=O)N[C@@H](C(C)C)C(=O)N[C@@H]([C@@H](C)CC)C(=O)N1)C(N)=O` [SP-266] (Ac-FIDEAVLM[S5]LVI[S5]MALDRI-NH2; staple 9-13) was tested, and the IC50 [1] was 200 to 400 nM and the “Viability 1% FBS AVG” value (HRE-bla ME-180 cells [3]) was “++++ (≥30: ++++)”.

For `CC[C@H](C)[C@H](NC(=O)[C@H](Cc1ccccc1)NC(C)=O)C(=O)N[C@@H](CC(=O)O)C(=O)N[C@@H](CCC(=O)O)C(=O)N[C@@H](CCC(=O)O)C(=O)N[C@H](C(=O)N[C@@H](CC(C)C)C(=O)N[C@@H](CCSC)C(=O)N[C@@]1(C)CCCC=CCCC[C@@](C)(C(=O)N[C@@H](CCSC)C(=O)N[C@@H](C)C(=O)N[C@@H](CC(C)C)C(N)=O)NC(=O)[C@H]([C@@H](C)CC)NC(=O)[C@H](C(C)C)NC(=O)[C@H](CC(C)C)NC1=O)C(C)C` [SP-7] (Ac-FIDEEVLM[S5]LVI[S5]MAL-NH2; staple 9-13), the IC50 [1] was 400 to 700 nM and the “Viability 1% FBS AVG” value (HRE-bla ME-180 cells [3]) was “++++ (≥30: ++++)”.

For `CCCC[C@H](NC(=O)[C@H](CCC(=O)O)NC(=O)[C@@H](NC(=O)[C@@H](NC(=O)[C@H](CC(C)C)NC(=O)[C@]1(C)CCCC=CCCC[C@](C)(NC(=O)[C@H](CCC(=O)O)NC(=O)[C@H](CC(=O)O)NC(=O)[C@@H](NC(=O)[C@H](CC(N)=O)NC(=O)[C@@H](NC(=O)[C@H](CCC(N)=O)NC(=O)[C@H](CC(=O)O)NC(=O)[C@H](CC(C)C)NC(=O)[C@]2(C)CCCC=CCCC[C@](C)(NC(=O)[C@H](CCC(=O)O)NC(=O)CNC(=O)[C@H](CCC(N)=O)NC(=O)[C@H](CC(C)C)NC(=O)[C@H](CC(C)C)NC(C)=O)C(=O)N[C@@H](CC(C)C)C(=O)N[C@@H](CC(C)C)C(=O)N[C@@H](CCCNC(=N)N)C(=O)N2)C(C)C)[C@@H](C)CC)C(=O)N[C@@H](C(C)C)C(=O)N[C@@H](CC(C)C)C(=O)N[C@@H](CCCC)C(=O)N1)C(C)C)[C@@H](C)CC)C(=O)NCC(N)=O` [SP-326] (Ac-LLQGE[S5]LLR[S5]LDQVNIDE[S5]VL[Nle][S5]LVIE[Nle]G-NH2; staple 6-10, 19-23), the IC50 [1] was greater than 700 nM and the “Viability 1% FBS AVG” value (HRE-bla ME-180 cells [3]) was “++++ (≥30: ++++)”.

For `CCCC[C@@H]1NC(=O)[C@H](CC(C)C)NC(=O)[C@H](C(C)C)NC(=O)[C@@](C)(NC(=O)[C@H](CCC(=O)O)NC(=O)[C@H](CC(=O)O)NC(=O)[C@@H](NC(=O)[C@H](Cc2ccccc2)NC(C)=O)[C@@H](C)CC)CCCC=CCCC[C@@](C)(C(=O)N[C@@H](CC(C)C)C(=O)N[C@H](C(=O)N[C@H](C(=O)N[C@@H](CCC(=O)O)C(=O)N[C@@H](C)C(=O)N[C@@H](C)C(=O)N[C@@H](CC(C)C)C(N)=O)[C@@H](C)CC)C(C)C)NC1=O` [SP-145] (Ac-FIDE[S5]VL[Nle][S5]LVIEAAL-NH2; staple 5-9), the IC50 [1] was 200 to 400 nM and the “Viability 1% FBS AVG” value (HRE-bla ME-180 cells [3]) was “++++ (≥30: ++++)”.

With `CCCC[C@H](NC(=O)[C@H](CCC(=O)O)NC(=O)[C@@H](NC(=O)[C@@H](NC(=O)[C@H](CC(C)C)NC(=O)[C@]1(C)CCCC=CCCC[C@](C)(NC(=O)[C@H](CCC(=O)O)NC(=O)[C@H](CC(=O)O)NC(=O)[C@@H](NC(=O)[C@H](CC(N)=O)NC(=O)[C@@H](NC(=O)[C@H](CCC(N)=O)NC(=O)[C@]2(C)CCCC=CCCC[C@](C)(NC(=O)[C@H](CC(C)C)NC(=O)[C@H](CCC(=O)O)NC(=O)[C@H](CCC(=O)O)NC(=O)CNC(=O)[C@H](CCC(N)=O)NC(=O)[C@H](CC(C)C)NC(=O)[C@H](CC(C)C)NC(C)=O)C(=O)N[C@@H](CCCNC(=N)N)C(=O)N[C@@H](C)C(=O)N[C@@H](CC(C)C)C(=O)N2)C(C)C)[C@@H](C)CC)C(=O)N[C@@H](C(C)C)C(=O)N[C@@H](CC(C)C)C(=O)N[C@@H](CCCC)C(=O)N1)C(C)C)[C@@H](C)CC)C(=O)NCC(N)=O` [SP-327] (Ac-LLQGEEL[S5]RAL[S5]QVNIDE[S5]VL[Nle][S5]LVIE[Nle]G-NH2; staple 8-12, 19-23) the “18 h Avg % max inhibition at top conc” value (HRE-bla ME-180 cells [2]) was “+ (<10: +)”, the EC50 (HRE-bla ME-180 cells [2]) was greater than 30 µM and the “Viability 1% FBS AVG” value (HRE-bla ME-180 cells [3]) was “++++ (≥30: ++++)”.

With `CCCC[C@H](NC(=O)[C@H](Cc1ccccc1)NC(=O)[C@@H](NC(=O)[C@H](C)NC(=O)[C@H](CCC(N)=O)NC(=O)[C@H](CC(=O)O)NC(=O)[C@@H](NC(=O)[C@H](Cc1ccccc1)NC(C)=O)[C@@H](C)CC)C(C)C)C(=O)N[C@@]1(C)CCCC=CCCC[C@@](C)(C(=O)N[C@@H](CCCC)C(=O)N[C@@H](C)C(=O)N[C@@H](CC(C)C)C(=O)N[C@@H](CC(C)C)C(N)=O)NC(=O)[C@H]([C@@H](C)CC)NC(=O)[C@H](C(C)C)NC(=O)[C@H](CC(C)C)NC1=O` [SP-250] (Ac-FIDQAVF[Nle][S5]LVI[S5][Nle]ALL-NH2; staple 9-13) the “18 h Avg % max inhibition at top conc” value (HRE-bla ME-180 cells [2]) was “+ (<10: +)”, the EC50 (HRE-bla ME-180 cells [2]) was greater than 30 µM and the “Viability 1% FBS AVG” value (HRE-bla ME-180 cells [3]) was “++++ (≥30: ++++)”.

`CC[C@H](C)[C@H](NC(=O)[C@H](Cc1ccccc1)NC(C)=O)C(=O)N[C@@H](CC(=O)O)C(=O)N[C@@H](CCC(=O)O)C(=O)N[C@H](C(=O)N[C@H](C(=O)N[C@@H](CC(C)C)C(=O)N[C@@H](CCSC)C(=O)N[C@@]1(C)CCCC=CCCC[C@@](C)(C(=O)N[C@@H](CCSC)C(=O)N[C@@H](C)C(=O)N[C@@H](CC(C)C)C(N)=O)NC(=O)[C@H]([C@@H](C)CC)NC(=O)[C@H](C(C)C)NC(=O)[C@H](CC(C)C)NC1=O)C(C)C)[C@@H](C)O` [SP-239] (Ac-FIDETVLM[S5]LVI[S5]MAL-NH2; staple 9-13) was tested, and the “18 h Avg % max inhibition at top conc” value (HRE-bla ME-180 cells [2]) was “++ (≤10 but <25: ++)”, the EC50 (HRE-bla ME-180 cells [2]) was greater than 30 µM and the “Viability 1% FBS AVG” value (HRE-bla ME-180 cells [3]) was “++++ (≥30: ++++)”.
